MIC and LD50 data for 7 compounds are collected here from patent publication US4720546A (priority 1984, dated 1988).

The subject of one data set is Histoplasma capsulatum. In words: microbe, parasite or virus in culture. Format: cell-based. The settings on record: 168 h, read-out: MIC values, H. capsulatum.
A further data set in a line: in vivo. The settings on record: mouse, po.
The subject of a further data set is Candida albicans. In words: fungistatic activity test in Casiton agar test tubes (MIC), Candida albicans. The settings on record: 48 h, read-out: MIC values, C. albicans. Type of data set: cell-based.

≈ marks a conversion by molar mass, not a printed value. Some results are limits rather than exact numbers.

Consider `O=S1(=O)CCN(c2ccc(OC[C@H]3CO[C@](Cn4cnnc4)(c4ccc(Cl)cc4Cl)O3)cc2)CC1` (relative stereo) [N CH 2, cis-4-[4-[[2-(2,4-dichlorophenyl)-2-[(4H-1,2,4-triazol-4-yl)methyl]-1,3-dioxolan--4-yl]methoxy]phenyl]-tetrahydro-4H-1,4-thiazine 1,1-dioxide], for which the MIC is above 100 µg/mL with Histoplasma capsulatum and 0.1 to 10 µg/mL (≈ 0.185 to 18.5 µM) in the data set with Candida albicans. This compound came in with an LD50 in the data set “in vivo” of at least 4000 mg/kg.
In the same order, the values of `Clc1ccc([C@@]2(Cn3ccnc3)OC[C@H](COc3ccc(N4CCSCC4)cc3)O2)c(Cl)c1` (relative stereo) [CH CH 0, cis-4-[4-[[2-(2,4-dichlorophenyl)-2-[(imidazol-1-yl)methyl]-1,3-dioxolan-4-yl]methoxy]phenyl]tetrahydro-4H-1,4-thiazine] are 10 µg/mL (≈ 19.7 µM), 1 to 100 µg/mL (≈ 1.97 to 197 µM) and around 1000 mg/kg.
In the same order, the values of `O=S1(=O)CCN(c2ccc(OC[C@H]3CO[C@](Cn4ccnc4)(c4ccc(Cl)cc4Cl)O3)cc2)CC1` (relative stereo) [CH CH 2, cis-4-[4-[[2-(2,4-dichlorophenyl)-2-[(imidazol-1-yl)methyl]-1,3-dioxolan-4-yl]methoxy]phenyl]-tetrahydro-4H-1,4-thiazine 1,1-dioxide] are 1 µg/mL (≈ 1.86 µM), 0.1 to 1 µg/mL (≈ 0.186 to 1.86 µM) and at least 4000 mg/kg.
In the same order, the values of `Clc1ccc([C@@]2(Cn3cncn3)OC[C@H](COc3ccc(N4CCSCC4)cc3)O2)c(Cl)c1` (relative stereo) [CH N 0, cis-4-[4-[[2-(2,4-dichlorophenyl)-2-[(1H-1,2,4-triazol-1-yl)methyl]-1,3-dioxolan-4-yl]methoxy]phenyl]-tetrahydro-4H-1,4-thiazine] are 10 µg/mL (≈ 19.7 µM), 0.1 to 1 µg/mL (≈ 0.197 to 1.97 µM) and at least 5000 mg/kg.
As for `[O-][S+]1CCN(c2ccc(OC[C@H]3CO[C@](Cn4cncn4)(c4ccc(Cl)cc4Cl)O3)cc2)CC1` (relative stereo) [CH N 1, cis-4-[4-[[2-(2,4-dichlorophenyl)-2-[(1H-1,2,4-triazol-1-yl)methyl]-1,3-dioxolan-4-yl]methoxy]phenyl]-tetrahydro-4H-1,4-thiazine 1-oxide], the MIC is 100 µg/mL (≈ 191 µM) in the data set with Histoplasma capsulatum and 1 to 100 µg/mL (≈ 1.91 to 191 µM) with Candida albicans. In the data set “in vivo”, the 50% lethal dose (LD50) is around 4000 mg/kg.
In the same order, the values of `O=S1(=O)CCN(c2ccc(OC[C@H]3CO[C@](Cn4cncn4)(c4ccc(Cl)cc4Cl)O3)cc2)CC1` (relative stereo) [CH N 2, cis-4-[4-[[2-(2,4-dichlorophenyl)-2-[(1H-1,2,4-triazol-1-yl)methyl]-1,3-dioxolan-4-yl]methoxy]phenyl]-tetrahydro-4H-1,4-thiazine 1,1-dioxide] are 1 µg/mL (≈ 1.85 µM), 0.1 to 10 µg/mL (≈ 0.185 to 18.5 µM) and at least 5000 mg/kg.
In the same order, the values of `[O-][S+]1CCN(c2ccc(OC[C@H]3CO[C@](Cn4ccnc4)(c4ccc(Cl)cc4Cl)O3)cc2)CC1` (relative stereo) [CH CH 1, cis-4-[4-[[2-(2,4-dichlorophenyl)-2-[(imidazol-1-yl)methyl]-1,3-dioxolan-4-yl]methoxy]-phenyl]-tetrahydro-4H-1,4-thiazine 1-oxide] are 10 µg/mL (≈ 19.1 µM), 1 to 100 µg/mL (≈ 1.91 to 191 µM) and around 1000 mg/kg.
